From ChEMBL document CHEMBL1201862, “PubChem BioAssay data set” (2004)
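Test compounds were applied to cells in 96-well plates for 48 hours at 5 doses. Here, GI50 denotes the concentration required for 50% inhibition of growth.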 Activity calls are given as the source filed them. Cut-off read from the data, not from the text of the source: active = GI50 up to about 1.1 µM and inactive = higher.

Experiments:
Test in all cases: inhibition of tumour cell growth, NCI panel, 48 h
[1] = test system: SNB-75
[2] = test system: TK-10
[3] = test system: PC-3
[4] = test system: OVCAR-4
[5] = test system: HCT-116
[6] = test system: LOX IMVI
[7] = test system: SF-539
[8] = test system: BT-549
[9] = test system: M14
[10] = test system: UACC-62
[11] = test system: SF-295
[12] = test system: SK-OV-3
[13] = test system: CAKI-1
[14] = test system: EKVX
[15] = test system: MCF7
[16] = test system: SK-MEL-5
[17] = test system: HCC 2998
[18] = test system: HL-60
[19] = test system: DU-145

Measured: GI50

CC(C#N)Nc1ccc(Oc2ccc(C(C)(C)c3ccc(Oc4ccc(NC(C)C#N)cc4)cc3)cc2)cc1 (stereo unspecified)
inactive: [1] 92.5 µM | [2] > 100 µM | [3] 79.4 µM | [4] > 100 µM | [5] 30.7 µM | [6] > 100 µM | [7] > 100 µM | [8] > 100 µM | [9] > 100 µM | [10] > 100 µM | [11] > 100 µM | [12] > 100 µM | [13] > 100 µM | [14] > 100 µM | [15] 6.25 µM | [16] 50.6 µM | [17] 22.3 µM

COc1ccc(C=O)c(N(C)C(=O)C(C)(C)C)c1
inactive: [1] > 100 µM | [2] > 100 µM | [4] > 100 µM | [5] > 100 µM | [6] > 100 µM | [7] > 100 µM | [9] > 100 µM | [10] > 100 µM | [11] > 100 µM | [12] > 100 µM | [14] > 100 µM | [18] > 100 µM | [16] > 100 µM | [17] > 100 µM

NC[C@H]1Nc2ccccc2[C@@H](O)C1O (stereo partly specified)
inactive: [1] > 100 µM | [2] > 100 µM | [3] > 100 µM | [4] > 100 µM | [19] > 100 µM | [5] > 100 µM | [6] > 100 µM | [7] > 100 µM | [9] > 100 µM | [10] > 100 µM | [11] > 100 µM | [12] > 100 µM | [13] > 100 µM | [14] > 100 µM | [18] > 100 µM | [15] > 100 µM | [16] > 100 µM | [17] > 100 µM

Nc1ncnc2c1ncn2CC(OCP(=O)(O)O)Oc1ccccc1 (stereo unspecified)
inactive: [1] > 100 µM | [2] > 100 µM | [3] > 100 µM | [4] > 100 µM | [19] > 100 µM | [5] > 100 µM | [6] > 100 µM | [7] > 100 µM | [9] > 100 µM | [10] > 100 µM | [11] > 100 µM | [12] > 100 µM | [13] > 100 µM | [14] > 100 µM | [15] > 100 µM | [16] > 100 µM | [17] > 100 µM

O=C(c1cc(=O)c2ccc(O)cc2o1)c1ccc(Cl)cc1Cl
inactive: [1] > 82.2 µM | [2] 38.5 µM | [4] 12 µM | [5] 13.6 µM | [6] 3.15 µM | [9] 5.12 µM | [10] 5.93 µM | [11] 20.6 µM | [12] > 62.1 µM | [13] > 69.7 µM | [14] 50.2 µM | [18] 1.26 µM | [16] 20.4 µM | [17] 9.75 µM

CC1(Sc2ccccc2)CN(Cc2ccccc2)C1=O (stereo unspecified)
inactive: [1] 39.6 µM | [2] > 100 µM | [4] 88.5 µM | [5] 60 µM | [6] > 100 µM | [7] > 100 µM | [9] > 100 µM | [10] > 100 µM | [11] > 100 µM | [12] > 100 µM | [14] > 100 µM | [18] 60.4 µM | [16] > 100 µM | [17] > 100 µM

COc1ccc(C2=C(Cl)C(=O)O/C2=C\c2ccc(OC)c(Br)c2)cc1Cl
inactive: [1] > 100 µM | [2] 21.5 µM | [3] 39.1 µM | [4] > 100 µM | [19] 74.6 µM | [5] 23.5 µM | [6] 58.9 µM | [7] 16.1 µM | [9] 70.8 µM | [10] 22.8 µM | [11] 15.7 µM | [12] 37.1 µM | [13] 36.1 µM | [14] 31.6 µM | [18] > 100 µM | [15] 14.6 µM | [16] > 100 µM | [17] 57.9 µM

Cc1nc2ccc(Br)cc2c(=O)n1-c1nnc(C(C)(C)C)s1
inactive: [1] > 10 µM | [2] > 10 µM | [3] > 10 µM | [4] > 10 µM | [19] > 10 µM | [5] > 10 µM | [6] > 10 µM | [7] > 10 µM | [9] > 10 µM | [10] > 10 µM | [11] > 10 µM | [12] > 10 µM | [13] > 10 µM | [14] > 10 µM | [18] > 10 µM | [15] > 10 µM | [16] > 10 µM | [17] > 10 µM

COc1cc2c3c(n(C)c(=O)c2cc1OC)-c1cc2c(cc1/C3=C\CCCCl)OCO2
inactive: [1] 11.9 µM | [2] 20.1 µM | [3] > 100 µM | [4] 49.7 µM | [6] 39 µM | [8] 20.5 µM | [9] 36.9 µM | [11] 19.9 µM | [12] 23 µM | [13] 25.9 µM | [14] 54.6 µM | [18] 55.1 µM | [15] 42 µM | [16] 25.6 µM | [17] 23 µM

O=C(c1ccccc1)N1C(=S)N(c2ccccn2)C(=N/c2ccccc2)/C1=N\c1ccccc1
inactive: [1] 20.5 µM | [2] 25.1 µM | [3] 9.84 µM | [4] 10.5 µM | [19] > 61.9 µM | [5] 12.8 µM | [6] 12.4 µM | [7] 12.9 µM | [9] 55.6 µM | [10] 11.2 µM | [11] 25.5 µM | [12] 43.6 µM | [13] 10.5 µM | [14] 24 µM | [18] 3.66 µM | [15] 60.8 µM | [16] 19.1 µM | [17] > 93.5 µM

O=C(O)c1cc2ccccc2c(/N=N/c2ccc(S(=O)(=O)Nc3nccs3)cc2)c1O
inactive: [1] > 100 µM | [2] > 100 µM | [3] > 100 µM | [4] > 100 µM | [19] > 100 µM | [5] > 100 µM | [7] > 100 µM | [9] > 100 µM | [10] > 100 µM | [11] > 100 µM | [12] > 100 µM | [13] > 100 µM | [14] > 100 µM | [18] > 100 µM | [15] > 100 µM | [16] > 100 µM | [17] > 100 µM

CCCc1cc(O)c2c(C)c3[nH]c4ccc(Cl)cc4c3c(C)c2n1
inactive: [1] 2.9 µM | [2] 1.94 µM | [3] 4.06 µM | [4] 1.86 µM | [19] 6.3 µM | [5] 1.63 µM | [6] 1.82 µM | [7] 1.92 µM | [9] 3.1 µM | [11] 2.36 µM | [13] 2 µM | [14] 2.44 µM | [18] 1.67 µM | [15] 1.83 µM | [16] 9.68 µM | [17] 1.62 µM
